# Columns and labels:
# [1] = tested on: normal human astrocytes (NHA); conditions: 14.4 μM thimerosal
# Method: NHA were incubated for 1 hour with probes before fixation. Fixation in buffered paraformaldehyde (PFA) was performed in two stages. Firstly, a 50-4 aliquot of ice-cold 8% PFA was added to each well, then gently aspirated and the wells were twice washed with ice-cold 2% PFA and then allowed to completely fix at 4° C. After fixation, cells were washed twice in 1×PBS (Thermo Fisher Scientific, Rockford, Ill., USA). The tanks were then removed from the slides, the well area covered with Fluoromount-G (SouthernBiotech, Ill., USA), cover-slipped and sealed with nail varnish.
# [2] = tested on: normal human astrocytes (NHA)
# Method: (§1) Normal human astrocytes (NHA) were obtained from Lonza (Walkersville, Md., USA) and grown subject to their recommendations. NHA were grown to confluency in Astrocyte Cell Basal Medium supplemented with 3% FBS, Glutamine, Insulin, fhEGF, GA-1000 and ascorbic acid in 16-well Lab-Tek slide chambers (Nalge Nunc, Rochester, N.Y., USA), in a total volume of 240 μL.
# NHA were incubated for 1 hour with probes before fixation. Fixation in buffered paraformaldehyde (PFA) was performed in two stages. Firstly, a […] of ice-cold 8% PFA was added to each well, then gently aspirated and the wells were twice washed with ice-cold 2% PFA and then allowed to completely fix at 4° C. After fixation, cells were washed twice in 1×PBS (Thermo Fisher Scientific, Rockford, Ill., USA). The tanks were then removed from the slides, the well area covered with Fluoromount-G (SouthernBiotech, Ill., USA), cover-slipped and sealed with nail varnish.
# DNA was visualized using 1 μM Hoechst 33258 (Cat. No. H1398), mitochondrial membrane potential with 500 nM Mitotracker® Red (Dagda et al., 2009) (Cat. No. M22425), hydrogen peroxide using 5 μM H2DCFAM (Whiteman et al., 2009; Setsukinai et al., 2003) (Cat. No. D399), mitochondrial superoxide generation with 5 μM MitoSOX™ Red (Abramov et al., 2010) (Cat. No. M36008), HO. was assayed using 5 μM hydroxyphenyl fluorescein (Setsukinai et al., 2003) (HPF) (Cat. No. H36004), with reagents obtained from Molecular Probes (Eugene, Oreg., USA).
# (§2) 3% FCS was present in the NHA medium throughout the time-course. To generate the time-course shown in FIG. 17A and FIG. 17B, NHA were exposed to Mitotracker, H2DCFAM and Hoechst at t=0.
# [3] = tested on: normal human astrocytes (NHA); remark: listed apart in the source
# From the text: as §2
# [4] = tested on: normal human astrocytes (NHA); conditions: 14.4 μM thimerosal, 1 hr, vs control (FIG. 21)
# Method: as §1
# (§3) Fixed cells were permeabilized using 1×PBS with 0.1% Triton X-100®. Hydrazine reactive aldehyde/ketones were labeled using 225 μM Biotin-XX hydrazide (Hensley, 2009) (Cat. No. B2600) and visualized using Texas Red-Avidin (Cat. No. A820). The activity of Caspase-3 in fixed, 0.1% Triton-permeabilized cells was measured using the R110-EnzChek® Assay Kit (Molecular Probes, Cat. No. E13184), and incubating cells for 1 h at 37° C. (Scott et al., 2003).
# as §2
# Caspase-3 = conditions: NHA, 14.4 μM thimerosal, 1 hr, vs control
# Method: as §3, §2
# [5] = 14.4 μM thimerosal, 1 hr, vs control (FIG. 21)
smiles,measurement,setting,value
C[CH2][Hg][S]c1ccccc1C(=O)[O-].[Na+] [Thimerosal],time at which levels of cellular DCF began to fall,[1],> 40 min
same,amount of ROS (DCF) generated by mitochondria vs control mitochondria,"[1]; 60 min, fit of intensity profiles",four times
same,increase in ROS (DCF),"[1]; 60 min, vs control",two-fold
same,increase in steady-state production of reactive oxidants (H2DCF-AM),"[1]; 1 hr, vs control",200%
same,increase in HO. greater than the increase in superoxide generation,"[2]; 14.4 μM thimerosal, 1 hr",≈ 80%
same,increase in superoxide generation per cell,"[2]; 14.4 μM thimerosal, 1 hr",90%
same,more HO. generation per superoxide,"[2]; 14.4 μM thimerosal, 1 hr, deconvolution of signals",60%
same,increase in HO.,[2]; [5],300%
same,increase in internal mitochondrial steady state level of superoxide,[2]; [5],≈ 70%
same,thimerosal concentration at which a loss of mitochondrial signal and of DCF was observed,"[2]; 60 min, 0-14.4 μM",> 7.2 µM
same,increase in 3′OH DNA nicks,[3]; [5],300%
same,increase in levels of mitochondrial DNA breaks,[3]; [5],240%
same,increase in levels of oxidized bases/apurinic or apyrimidinic sites,[3]; [5],460%
same,increase in levels of oxidant damaged mitochondrial DNA bases,[3]; Thimerosal treatment,five-fold
same,increase in cellular hydrazine reactive carbonyls (matches superoxide increase),[4],≈ 70%
same,increase in Caspase-3 activity,Caspase-3,five-fold

# Reference: patent US20130157261A1, “Compositions and Methods for Quantitative Histology, Calibration of Images in Fluorescence Microscopy, and ddTUNEL Analyses” (The Methodist Hospital Research Institute, priority 2011, published 2013)
